Experimental data: patent publication US20150290029A1, “Delivery Systems for Agents to treat Ocular Discomfort” (priority 2014, published 2015)
Read-outs that look alike come from different tables or passages of the source. One block for each compound: values may come before it.

Columns and labels:
TRPM8 receptor = target: T1, TRPM8 receptor (Homo sapiens, UniProt Q7Z2W7); assay: Receptor assay, fluorescence (Relative Fluorescence Units), ChanTest; type: cell-based; details: FIG. 4
T1 construct: ChanTest Corporation
T1 sequence (Q7Z2W7 whole entry): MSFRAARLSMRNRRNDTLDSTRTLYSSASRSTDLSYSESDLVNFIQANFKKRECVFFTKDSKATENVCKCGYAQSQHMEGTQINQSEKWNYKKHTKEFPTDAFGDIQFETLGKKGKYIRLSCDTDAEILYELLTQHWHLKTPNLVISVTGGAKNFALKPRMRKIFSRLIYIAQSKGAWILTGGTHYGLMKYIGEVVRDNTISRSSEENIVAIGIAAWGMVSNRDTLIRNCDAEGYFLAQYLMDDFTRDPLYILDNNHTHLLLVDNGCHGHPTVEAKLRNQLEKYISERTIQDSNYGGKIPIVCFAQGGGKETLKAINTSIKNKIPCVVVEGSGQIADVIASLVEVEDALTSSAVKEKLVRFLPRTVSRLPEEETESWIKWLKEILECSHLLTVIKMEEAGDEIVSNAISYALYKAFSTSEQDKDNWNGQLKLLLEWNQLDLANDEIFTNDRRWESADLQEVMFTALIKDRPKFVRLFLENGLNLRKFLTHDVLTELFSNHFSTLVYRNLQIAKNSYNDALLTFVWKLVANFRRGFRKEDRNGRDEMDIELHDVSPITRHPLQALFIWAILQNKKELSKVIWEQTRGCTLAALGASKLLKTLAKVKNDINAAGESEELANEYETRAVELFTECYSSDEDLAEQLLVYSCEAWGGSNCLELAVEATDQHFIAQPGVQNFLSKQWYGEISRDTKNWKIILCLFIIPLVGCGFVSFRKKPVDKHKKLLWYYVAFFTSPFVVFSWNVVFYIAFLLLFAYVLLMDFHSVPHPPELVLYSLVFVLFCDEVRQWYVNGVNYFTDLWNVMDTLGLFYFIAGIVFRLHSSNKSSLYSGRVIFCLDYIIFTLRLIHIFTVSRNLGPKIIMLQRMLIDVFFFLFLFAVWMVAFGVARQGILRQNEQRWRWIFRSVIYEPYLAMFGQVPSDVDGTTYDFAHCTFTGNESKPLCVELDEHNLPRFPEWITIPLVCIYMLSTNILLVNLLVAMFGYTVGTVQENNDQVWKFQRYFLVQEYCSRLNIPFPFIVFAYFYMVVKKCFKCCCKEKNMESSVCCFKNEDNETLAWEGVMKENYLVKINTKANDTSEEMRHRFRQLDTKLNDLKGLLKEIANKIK
Method: FIG. 4 is a graph of fluorescence (Relative Fluourescence Units; % Maximum) of test compounds, as a function of the logarithm of the concentration of the test compound (μM). The compounds tested were 2-4 (circle), 2-5 (square), 2-6 (inverted triangle), 2-7 (diamond), and 2-8 (star), representing the 1 [di-sec-butyl-phosphinoyl]-butane, pentane, hexane, heptane, and octane analogs, respectively. The receptor assays were conducted by ChanTest Corporation, Cleveland, Ohio 44128. […] The 95% confidence intervals of 2-5 to 2-8 overlap.
(§1) FIG. 5. illustrates the activity of 2-5 on cells transfected with the TRPA1 and TRPV1. TRPA1 and TRPV1 receptors mediate nociception: that is, stimulation of these receptors results in irritation and pain. Capsaicin and mustard oil are the positive control substances for TRPV1 and TRPA1, respectively.

ocular surface = assay: Periocular spray of 2-5 over the closed eye in normal subjects and dry eyes syndrome patients; type: in vivo, human
Method: Sensory discomfort of the eye is a conspicuous symptom in patients diagnosed with “dry eyes disease.” The study described below was conducted by Prof. K. C. Yoon of the Department of Ophthalmology, Chonnam National University Medical School, Gwangju, South Korea. Prof. Yoon is an acknowledged expert on the investigation of dry eyes disease and has published extensively on this subject [e.g. Yoon, K.-C. et al. Application of umbilical cord serum eyedrops for the treatment of dry eye syndrome. Cornea 25, 268-72 (2006). Yoon, K.-C. et al. Comparison of autologous serum and umbilical cord serum eye drops for dry eye syndrome. Am. J. Ophthalmol. 144, 86-92 (2007).] The methods used in these two publications were also used in the experiments described below. This report was presented as an Oral Communication entitled “Effect of a periocular spray of a TRPM8 agonist on the ocular surface” at the 110th Meeting of the Korean Ophthalmological Society, Bexco, Busan, Korea on Apr. 13, 2014.
2-5 was prepared as a 2 mg/mL solution in distilled water and administered as a spray [sprayed volume of ˜0.1 mL] over the closed right eye of test subjects. There were 20 subjects in the normal group [9 males/11 females] and 17 subjects in the group with defined “dry eyes syndrome” [7 males/10 females]. Exclusion criteria for patient selection was age of <18 years, systemic medication that may affect tear secretion, previous punctal plug insertion, history of contact lenses use, previous ocular surgery or trauma, pregnancy or lactation, and ocular or systemic disease. The average age of the subjects was 29 years, and both groups had normal values for visual acuity, intraocular pressure, and corneal sensitivity [Cochet-Bonnet esthesiometry, measured with a microfilament]. […] The score for keratoepitheliopathy [National Eye Institute system] was 0.1±0.3 and 2.5±1.7, in the normal vs the “dry eyes syndrome” group.
Subjective symptoms were graded on a numerical score. A visual analog scale score [0 to 10 units] was used for grading the degree of soothing and cooling sensation on the ocular surface. For symptoms of the dry eyes syndrome, a scale of zero to four was used, with zero representing no symptoms and four representing very severe symptoms that caused discomfort and interfered with normal activities. These methods have been described in detail elsewhere and are incorporated by reference [Yoon, K.-C. et al. Application of umbilical cord serum eyedrops for the treatment of dry eye syndrome. Cornea 25, 268-72 (2006). Yoon, K.-C. et al. Comparison of autologous serum and umbilical cord serum eye drops for dry eye syndrome. Am. J. Ophthalmol. 144, 86-92 (2007)].
The onset was less than 3 min and reached maximal effect in the first 10 min. The mean duration of cooling was 42±8 min and all cooling sensations disappeared by 1 hr. For patients previously diagnosed with “dry eyes” disease there was a reduction of symptom score from 1.8 to 0.5, a highly significant event [P<0.001]. […] However, the magnitude of the effect was not considered clinically significant and may have been due to increased sensitivity of the dry eyes patients to foreign solutions applied to the ocular surface. The keratoepitheliopathy score was not affected by treatment.
The mechanical sensitivity of the cornea, measured with the Cochet-Bonnet esthesiometer, was not affected in all patients, in the 1.5 hr test period with […], spaced 30 min apart. This is an important observation from the viewpoint of safety in use, because numbness of the corneal surface will increase risks of eye injury from foreign materials.

skin of the eyelids = assay: Irritation when applied in vivo to the skin of the eyelids; details: compared among analogs 2-4 to 2-8
TRPV1 = target: T2, TRPV1 (Homo sapiens, UniProt Q8NER1); assay: Activity on TRPV1 transfected cells; type: cell-based; details: FIG. 5; capsaicin positive control
T2 construct: expressed in transfected cells
T2 sequence (Q8NER1 whole entry, species assumed): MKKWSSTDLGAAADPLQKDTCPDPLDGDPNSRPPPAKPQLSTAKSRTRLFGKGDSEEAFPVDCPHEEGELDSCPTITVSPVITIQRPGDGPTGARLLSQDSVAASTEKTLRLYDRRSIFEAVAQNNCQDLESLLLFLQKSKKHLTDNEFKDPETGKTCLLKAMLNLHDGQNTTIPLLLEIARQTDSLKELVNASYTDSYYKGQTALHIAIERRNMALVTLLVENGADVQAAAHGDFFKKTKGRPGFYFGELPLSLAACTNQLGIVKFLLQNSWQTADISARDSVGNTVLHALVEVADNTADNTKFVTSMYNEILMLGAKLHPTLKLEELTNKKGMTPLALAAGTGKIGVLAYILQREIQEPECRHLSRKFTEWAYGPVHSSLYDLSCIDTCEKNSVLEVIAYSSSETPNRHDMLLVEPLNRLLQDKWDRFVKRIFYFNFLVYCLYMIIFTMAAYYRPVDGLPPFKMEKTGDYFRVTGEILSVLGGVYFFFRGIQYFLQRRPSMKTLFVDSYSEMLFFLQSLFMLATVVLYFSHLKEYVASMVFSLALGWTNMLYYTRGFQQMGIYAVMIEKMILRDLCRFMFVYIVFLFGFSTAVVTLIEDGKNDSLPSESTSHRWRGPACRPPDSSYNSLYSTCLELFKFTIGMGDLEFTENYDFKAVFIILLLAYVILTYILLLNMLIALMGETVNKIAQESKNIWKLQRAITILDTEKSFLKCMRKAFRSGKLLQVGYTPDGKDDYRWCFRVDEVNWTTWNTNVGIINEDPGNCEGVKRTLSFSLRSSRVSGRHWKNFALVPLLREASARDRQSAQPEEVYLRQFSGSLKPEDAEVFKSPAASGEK
Excerpt: as §1

TRPA1 = target: T3, TRPA1 (Homo sapiens, UniProt O75762); assay: Activity on TRPA1 transfected cells; type: cell-based; details: FIG. 5; mustard oil positive control
T3 construct: expressed in transfected cells
T3 sequence (O75762 whole entry, species assumed): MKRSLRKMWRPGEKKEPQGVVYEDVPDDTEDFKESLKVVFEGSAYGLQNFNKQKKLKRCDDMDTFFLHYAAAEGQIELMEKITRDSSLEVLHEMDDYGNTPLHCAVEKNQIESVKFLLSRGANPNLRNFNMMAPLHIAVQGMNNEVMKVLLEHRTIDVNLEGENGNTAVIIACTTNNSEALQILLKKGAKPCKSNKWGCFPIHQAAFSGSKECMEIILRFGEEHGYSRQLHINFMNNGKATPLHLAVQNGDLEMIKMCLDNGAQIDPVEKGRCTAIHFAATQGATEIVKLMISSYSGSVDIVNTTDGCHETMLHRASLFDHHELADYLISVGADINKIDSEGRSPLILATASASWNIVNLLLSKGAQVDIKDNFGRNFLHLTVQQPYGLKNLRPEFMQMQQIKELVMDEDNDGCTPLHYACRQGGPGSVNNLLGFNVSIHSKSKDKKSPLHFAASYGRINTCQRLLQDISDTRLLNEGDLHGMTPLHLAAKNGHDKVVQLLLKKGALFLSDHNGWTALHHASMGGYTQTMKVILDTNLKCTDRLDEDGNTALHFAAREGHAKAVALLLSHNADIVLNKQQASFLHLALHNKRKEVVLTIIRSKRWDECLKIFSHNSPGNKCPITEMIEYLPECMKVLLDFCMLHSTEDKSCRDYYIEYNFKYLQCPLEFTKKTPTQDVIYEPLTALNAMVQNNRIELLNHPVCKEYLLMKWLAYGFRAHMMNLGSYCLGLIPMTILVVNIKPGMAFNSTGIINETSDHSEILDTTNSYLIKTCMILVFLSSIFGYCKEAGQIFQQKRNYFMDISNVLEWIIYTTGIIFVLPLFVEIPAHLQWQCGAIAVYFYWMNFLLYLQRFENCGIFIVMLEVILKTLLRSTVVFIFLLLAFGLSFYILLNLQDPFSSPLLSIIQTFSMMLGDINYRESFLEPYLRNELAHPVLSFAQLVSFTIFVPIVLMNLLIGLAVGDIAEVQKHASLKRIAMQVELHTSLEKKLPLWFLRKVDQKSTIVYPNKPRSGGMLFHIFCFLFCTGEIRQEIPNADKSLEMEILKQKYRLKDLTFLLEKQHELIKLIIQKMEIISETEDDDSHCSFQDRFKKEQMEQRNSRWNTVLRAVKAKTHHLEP
Excerpt: as §1

human ocular surface = details: for Irritancy, delivery unit: wiped across the orbital skin
Method: Subjects received different ethanol-water concentrations either in eye drops or via the delivery unit. Subjects were asked to report irritation, stinging, burning sensations, or pain in the 2 to 5 min after application. The intensity of the subjective eye sensation was rated as 0, 1, 2 or 3 with: 0 as no effect; 1 as slight; 2 as a clear-cut effect; and 3 as severe.

[1] = dry eyes group, first 30 min, not considered clinically significant
[2] = ethanol 5% wt/vol in water, scale 0-3
[3] = ethanol 10% wt/vol in water, scale 0-3

Potency relative to 1-menthol in the same assay (TRPM8 receptor): 0.3 ×
SMILES: CCCCP(=O)(C(C)CC)C(C)CC (centres unmarked) [2-4, 1 [di-sec-butyl-phosphinoyl]-butane]

Keratoepitheliopathy score (ocular surface; after treatment): not affected
Mechanical sensitivity of the cornea (Cochet-Bonnet esthesiometer) (ocular surface; all patients, 1.5 hr test period, 5 points of measurement): not affected
Stimulation of TRPV1 (TRPV1): does not stimulate
Stimulation of TRPA1 (TRPA1): does not stimulate
Potency relative to 1-menthol in the same assay (TRPM8 receptor): 2.2 ×
SMILES: CCCCCP(=O)(C(C)CC)C(C)CC (centres unmarked) [2-5, 1-di(sec-butyl) phosphinoyl-pentane]
Soothing and cooling sensations on the ocular surface after blinking (ocular surface; 2 mg/mL in distilled water, spray ~0.1 mL over closed eye): all subjects felt soothing and cooling sensations
Mean duration of cooling (ocular surface; 2 mg/mL spray over closed eye): 42 ± 8 min
Onset of cooling (ocular surface; 2 mg/mL spray over closed eye): less than 3 min
Time by which all cooling sensations disappeared (ocular surface; 2 mg/mL spray over closed eye): ≤ 1 h
Time of maximal effect (ocular surface; 2 mg/mL spray over closed eye): ≤ 10 min
Tear Film BUT (ocular surface; [1]): slightly elevated
Tear secretion rates (ocular surface; [1]): slightly elevated
Symptom score after treatment (ocular surface; dry eyes patients, scale zero to four, reduced from 1.8, P<0.001): 0.5
Tear Film BUT (ocular surface; normal group): not significantly affected
Tear secretion rates (ocular surface; normal group): not significantly affected
Irritation when applied to the skin of the eyelids (skin of the eyelids): minimal irritation

Potency relative to 1-menthol in the same assay (TRPM8 receptor): 4-9 ×
SMILES: CCCCCCP(=O)(C(C)CC)C(C)CC (centres unmarked) [2-6, 1 [di-sec-butyl-phosphinoyl]-hexane]

Potency relative to 1-menthol in the same assay (TRPM8 receptor): 3.0 ×
SMILES: CCCCCCCCP(=O)(C(C)CC)C(C)CC (centres unmarked) [2-8, 1 [di-sec-butyl-phosphinoyl]-octane]

Sensation upon delivery (human ocular surface; 20% applied to the eye with a wipe): mild burning sensations in two subjects
SMILES: CCO [Ethanol]
Sensation upon delivery (human ocular surface; 5% ethanol solution as an eye drop): clearly aversive as an eye drop, producing stinging and pain upon delivery
Irritancy, eye drops (human ocular surface; ethanol 2.5% wt/vol in water, scale 0-3 (0 no effect, 3 strongly irritating), N = 8 experiments): 0
Irritancy, delivery unit (human ocular surface; ethanol 2.5% wt/vol in water, scale 0-3): 0
Irritancy, eye drops (human ocular surface; [2]): +2
Irritancy, delivery unit (human ocular surface; [2]): 0
Irritancy, eye drops (human ocular surface; [3]): +3
Irritancy, delivery unit (human ocular surface; [3]): 0
Irritancy, delivery unit (human ocular surface; ethanol 20% wt/vol in water, scale 0-3): +1
Change in decreased sensitivity to irritation, swab method versus eye drops (human ocular surface; ethanol/water): ~4 fold
